The nature of data set [1]: Test-tube determination of anionic character: dye mixed with organoclay, clean clay or quat in water, centrifuged, judged visually. As to conditions: for Ionic character of the dye concluded from the test tubes: conclusion from Table 1 observations. The data set is classed as physicochemical. As to the method:
Thus, the molecule or ion can be tested in order to determine whether it has an anionic character (and thus can undergo the present method) or a cationic character or a neutral character. In testing certain molecules or ions, the procedure described below was employed.
Using Jarocol Straw Yellow dye as a representative example, four 1 mg samples of the dye were weighed and placed in 4 test tubes.
Subsequently, 10 mL of water was added to each of the four test tubes, and all of the samples were mixed well for 30 seconds. The samples from each of the test tubes were then centrifuged for 15 minutes in a laboratory scale centrifuge.
The analysis herein was performed visually, since the six samples tested were dyes. […] For example, for a non-dye sample, the clay may be separated from the water, both parts may be taken to dryness, and the IR spectrum of each may be recorded.

Data set [2] in a line: Equivalence point of anionic dye added to organoclay (water phase begins to turn a weak color). The data set is classed as physicochemical. An excerpt: The objective of the present Example was not only to determine the equivalence points at a fixed clay:quat ratio for the four anionic dyes listed above, but also to determine the effects that varying the clay:quat ratio had on the dye equivalence. The equivalence point for each anionic dye was recognized as the moment when the water phase of the anionic dye/organoclay composition began to turn a weak color. In other words, the equivalence point for each dye indicated the point at which the anionic dye would bleed or fail to be dispersible when the dye/organoclay composition is placed in an aqueous environment. This equivalence point, then, also indicates the point at which the weak bonding sites on the clay have been satisfied.
Determination of the equivalence point for the four anionic dyes began with the preparation of the organoclay and the subsequent addition of the dye to form the anionic dye/organoclay compositions. The organoclay, having a clay:quat ratio of 1.0:0.77, was prepared by first heating 150 grams of clay slurry (wherein the clay slurry comprises 3.24 grams of bentonite clay and thus comprises 2.16% solids) on a hot plate to approximately 65° C. Simultaneously, 2.495 grams of quat were dissolved in hot water. The quat used in this Example was Adogen 442, and the solution contained a quat:water ratio of 1:20. The quat solution was placed on the same hot plate and heated to 65° C., while being stirred to aid in the dissolution of the quat.
The bentonite clay slurry was added to a Waring blender and was allowed to mix under high speed agitation (speed 6) for about 1 minute. The quat solution was then added slowly to the clay slurry and was allowed to react for approximately 25-30 minutes. After this time, the blender was stopped for a few seconds to ensure adequate floccing.
The process described above was repeated using several different clay:quat ratios including 1:0.5 and 1:0.6 (less quat than the experiment described above) and 1:0.9 (an excess of quat with respect to the experiment described above).

Setting [3] is: Clay:Quat Ratio of 1:0.77, 3.24 g bentonite clay, quat Adogen 442.

Turning to `CN(C)c1ccc2nc3ccc(=[N+](C)C)cc-3sc2c1` [Methylene Blue, reference compound], in data set [1], the “Ionic character of the dye concluded from the test tubes” value (“Ionic character of the dye concluded” below) is given as “cationic in nature”.
Regarding `Cc1ccc(N=Nc2c([O-])c(C(=O)O)cc3ccccc23)c(S(=O)(=O)[O-])c1.[Na+].[Na+]` [Lithol Rubine B], the “Equivalence Point” value in data set [2] (Clay:Quat Ratio of 1:0.5) is 0.0693 grams; in data set [2] (Clay:Quat Ratio of 1:0.6), 0.1471 grams; in data set [2] (setting [3]), 0.4103 grams. Moreover, the “Color change of dye on incorporation into organoclay” value in data set [2] (clay:quat ratios of 1:0.77, 1:0.6 and 1:0.5) is listed as “color change took place”. Moreover, in data set [1] (1 mg sample + 10 mg quat, 10 mL water, mixed 30 seconds, centrifuged 15 minutes), the “Test Tube 3 (10 mg Quat) visual observation” value was “the quat layer was dark red and the water layer was clear”. In data set [1] (1 mg sample only, 10 mL water, mixed 30 seconds, centrifuged 15 minutes), the “Test Tube 4 (Control, sample only) visual observation” value is listed as “Water was red”. For the same molecule, in data set [1], the “Ionic character of the dye concluded” value was “requisite anionic character”.
In the case of `O=C(O)c1nn(-c2ccc(S(=O)(=O)O)cc2)c(O)c1N=Nc1ccc(S(=O)(=O)O)cc1` [FD&C Yellow No. 5], the “Ionic character of the dye concluded” value in data set [1] is reported as “anionic in nature”.
Turning to FD&C Blue No. 1, the “Equivalence Point” value in data set [2] (setting [3]) turned out to be 0.3750 grams. Further, the “Ionic character of the dye concluded” value in data set [1] is on record as “anionic in nature”.
D&C Green No. 5: in data set [2] (setting [3]), the “Equivalence Point” value is on record as 0.4853 grams.

The record behind these values is patent US20040058168A1, “Method for incorporating anionic molecules into a substrate for increasing dispersibility of anionic molecules” (priority 2002, published 2004).
